How the values were obtained:
[1] = target: T1, rCsHK (recombinant Clonorchis sinensis hexokinase, CsHK) (Clonorchis sinensis, UniProt G7YJ23); experiment: G6PD-coupled NADPH assay at […] nm; assay type: biochemical; conditions: 3 mM glucose, with respect to ATP
T1 construct: gene CLF_109217; homotrimer about 164 kDa
T1 sequence (G7YJ23 1-449): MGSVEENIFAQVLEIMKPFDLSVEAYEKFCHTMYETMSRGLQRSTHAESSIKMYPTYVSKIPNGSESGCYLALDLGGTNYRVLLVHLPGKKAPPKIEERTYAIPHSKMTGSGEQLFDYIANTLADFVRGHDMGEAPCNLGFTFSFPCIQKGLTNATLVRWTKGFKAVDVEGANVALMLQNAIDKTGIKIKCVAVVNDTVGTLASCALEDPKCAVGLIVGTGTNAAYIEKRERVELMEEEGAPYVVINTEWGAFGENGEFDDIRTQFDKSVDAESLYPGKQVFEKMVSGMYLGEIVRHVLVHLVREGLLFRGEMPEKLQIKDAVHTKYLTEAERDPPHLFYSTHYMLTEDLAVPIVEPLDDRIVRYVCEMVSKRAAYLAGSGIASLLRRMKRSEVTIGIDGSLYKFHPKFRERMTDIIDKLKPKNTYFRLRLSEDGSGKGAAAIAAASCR

[2] = target: T1, rCsHK (recombinant Clonorchis sinensis hexokinase, CsHK); experiment: coupled pyruvate kinase / lactate dehydrogenase ADP assay at […] nm; assay type: biochemical; conditions: 0-4 mM G6P; with respect to ATP or glucose; allosteric inhibitor, dose-independent; also product
[3] = target: T1, rCsHK (recombinant Clonorchis sinensis hexokinase, CsHK); experiment: G6PD-coupled NADPH assay at […] nm; assay type: biochemical; conditions: read-out: relative enzymatic activity at 4 mM
purified protein = substrate: Nc1ncnc2c1ncn2[C@@H]1O[C@H](COP(=O)(O)OP(=O)(O)OP(=O)(O)O)[C@@H](O)[C@H]1O; experiment: purified protein; assay type: biochemical, Clonorchis sinensis; conditions: 3 mM glucose, 15 mM MgCl2, 100 mM Tris-Cl pH 8.5, 37 °C, sigmoidal, Mg-ATP true substrate

Molecule: Nc1ncnc2c1ncn2[C@@H]1O[C@H](COP(=O)(O)OP(=O)(O)O)[C@@H](O)[C@H]1O [ADP]
- G6PD-coupled NADPH assay at 340 nm ([1]; 0-3 mM ADP, mixed allosteric effector, also product): ADP, which is a product of HK, exhibited an unusual mixed allosteric effect on CsHK

Molecule: O=P(O)(O)OC[C@H]1OC(O)[C@H](O)[C@@H](O)[C@@H]1O (some centres unmarked) [glucose-6-phosphate]
- coupled pyruvate kinase / lactate dehydrogenase ADP assay at 340 nm [2]: Different concentrations G6P displayed the net allosteric inhibition of rCsHK

Molecule: O=P(O)(O)OP(=O)(O)O [inorganic pyrophosphate]
- G6PD-coupled NADPH assay at 340 nm ([1]; 0-3 mM PPi, allosteric activator, not a substrate): Different concentrations of PPi displayed a net allosteric activation of rCsHK with respect to ATP

Molecule: O=C(C1CCCCC1)N1CC(=O)N2CCc3ccccc3C2C1 (centres unmarked) [praziquantel]
- activity at 4000 µM [3]: 45%

B1: rCsHK (recombinant Clonorchis sinensis hexokinase, CsHK) (Clonorchis sinensis) (protein)
chain: MGSVEENIFAQVLEIMKPFDLSVEAYEKFCHTMYETMSRGLQRSTHAESSIKMYPTYVSKIPNGSESGCYLALDLGGTNYRVLLVHLPGKKAPPKIEERTYAIPHSKMTGSGEQLFDYIANTLADFVRGHDMGEAPCNLGFTFSFPCIQKGLTNATLVRWTKGFKAVDVEGANVALMLQNAIDKTGIKIKCVAVVNDTVGTLASCALEDPKCAVGLIVGTGTNAAYIEKRERVELMEEEGAPYVVINTEWGAFGENGEFDDIRTQFDKSVDAESLYPGKQVFEKMVSGMYLGEIVRHVLVHLVREGLLFRGEMPEKLQIKDAVHTKYLTEAERDPPHLFYSTHYMLTEDLAVPIVEPLDDRIVRYVCEMVSKRAAYLAGSGIASLLRRMKRSEVTIGIDGSLYKFHPKFRERMTDIIDKLKPKNTYFRLRLSEDGSGKGAAAIAAASCR
notes: homotrimer about 164 kDa
- K0.5 (purified protein): 0.459 ± 0.007 mM

— publication PMC4169440, “Sequence Analysis and Molecular Characterization of Clonorchis sinensis Hexokinase, an Unusual Trimeric 50-kDa Glucose-6-Phosphate-Sensitive Allosteric Enzyme” (PLoS ONE, 2014)
